Here are results for 9 molecules from US20240049719A1, “ANTIMICROBIAL COATING” (HECOSOL GMBH, priority 2017, published 2024).

Series [1] relates to E. coli. Briefly: JIS test (JIS Z 2801 / ISO 22196) on coated Petri dishes, germ reduction of E. coli. In kind it is cell-based. An excerpt: The reduction factor RL is used to quantify the anti-microbial effectiveness. This reduction factor RL can be represented by the following mathematical relationship: RL=log (A/B). Here, A corresponds to an average value of so-called colony forming units (CFU) per ml on a reference surface without anti-microbial coating. Consequently, B corresponds to an average value of colony forming units (CFU) per ml on a reference surface with an anti-microbial coating according to the present invention. The internationally recognized JIS test (Japanese Industrial Standard Test, JIS Z 2801), which corresponds to ISO standard 22196 in Europe, is used for objective assessment of the germ reducing effect of surfaces. Thereby, Petri dishes coated with the test substance are first wetted with a germ suspension (e.g. […] Here, the experiments can be performed in the dark or under defined lighting conditions (e.g. by means of LED light at 1600 lux). At the end of the incubation, the number of surviving germs is determined and a reduction factor RL is calculated as described above.

Series [2] has as its system Staphylococcus aureus. Briefly: JIS test (JIS Z 2801 / ISO 22196) against Staphylococcus aureus. It is filed as cell-based. To be noted: in-vitro JIS test, 1600 lux. Here is the method:
The internationally recognized JIS test (Japanese Industrial Standard Test, JIS Z 2801), which corresponds to ISO standard 22196 in Europe, is used for objective assessment of the germ reducing effect of surfaces.
Thereby, Petri dishes coated with the test substance are first wetted with a germ suspension (e.g. E. coli or Staphylococcus aureus), covered with a foil and then incubated at 35° C. and 95% humidity.
Here, the experiments can be performed in the dark or under defined lighting conditions (e.g. by means of LED light at 1600 lux).
At the end of the incubation, the number of surviving germs is determined and a reduction factor RL is calculated as described above.
The anti-microbial effectiveness of this coating 10′ against the Staphylococcus aureus germ is shown in FIG. 14a after an incubation period of 24 hours under defined light conditions of about 1600 lux with RL=4.1.

The format of series [3] is physicochemical. An excerpt: Furthermore, it is shown that the structure of the deposited TiO2*AgNO3 matrix is stable against 1000-times wiping with an anti-septic cloth (ethanol, benzalkonium chloride).
For series [4], the system named is Artemia nauplii (brine shrimp). To be noted: in vivo. An excerpt:
(§1) Therefore, the toxicological behaviour of this coating towards daphnia (water flea) as well as Artemia nauplii (brine shrimp) was investigated. […] As a result, these animals show the same vitality in the coated plates as in the uncoated ones.

Series [5] concerns daphnia (water flea). To be noted: in vivo.
Excerpt: as §1

Take `[Ag+].[Ag+].[O]=[Mo](=[O])([O-])[O-]` [Ag2MoO4, silver molybdate]: the “anti-microbial effectiveness (class in words)” value in series [1] (within/after 24 h, 1600 lux) is “strongly germ-reducing”. In the case of `O=[N+]([O-])[O-].[Ag+]` [AgNO3, silver nitrate], in series [1] (5 min incubation, in the dark), the “reduction factor RL” value is reported as 4.3. Besides, the “reproducible RL values (range over repeated JIS tests)” value in series [1] (JIS test) is recorded as 4.0-4.3. With `[Na+].[Na+].[O]=[Mo](=[O])([O-])[O-]` [Na2MoO4, sodium molybdate], in series [1] (within/after 24 h, 1600 lux), the “anti-microbial effectiveness (class in words)” value is reported as “no anti-microbial effect”. `[O]=[Mo](=[O])([O-])[O-].[Zn+2]` [ZnMoO4, zinc molybdate]: the “reduction factor RL” value in series [1] (5 min incubation, in the dark) is 3.2. In addition, the “effectiveness (in words)” value in series [2] is “germ reducing effectiveness”.

Regarding `[O]=[W](=[O])([O-])[O-].[Zn+2]` [ZnWO4, zinc tungstate], the “anti-microbial effectiveness (class in words)” value in series [1] (within/after 24 h, 1600 lux) is “strong”.

Consider `[O]=[W](=[O])=[O]` [tungsten oxide], for which the “anti-microbial effectiveness (class in words)” value in series [1] (within/after 24 h, 1600 lux) was “strong”. In the case of TiO2*AgNO3, the “stability of deposited matrix structure against wiping” value in series [3] is given as “stable”. Further, the “vitality of animals in coated vs uncoated plates” value in series [4] and in series [5] was “same vitality” throughout. As for ammonium heptamolybdate [(NH4)6Mo7O24], the “reduction factor RL (anti-microbial effectiveness)” value in series [1] (1 h incubation, 1600 lux) amounted to 1.4. In addition, in series [1] (24 h incubation, 1600 lux), the “reduction factor RL” value is 4.3. Besides, the “anti-microbial effectiveness (class in words)” value in series [1] (after 1 h, 1600 lux) is “significant”.

With tungsten molybdate, the “anti-microbial effectiveness (class in words)” value is listed as “no antimicrobial effectiveness” in series [1] (after 1 h, 1600 lux) and “no antimicrobial effectiveness” in series [1] (within/after 24 h, 1600 lux).
